target: T1, α-amylase (Sus scrofa, UniProt P00690); assay: in vitro α-amylase inhibitory assay (starch/DNS, absorbance 540 nm); type: biochemical; details: triplicates; standard acarbose; read-out: α-Amylase IC50 (µM ±SEM)
T1 sequence (P00690 16-511): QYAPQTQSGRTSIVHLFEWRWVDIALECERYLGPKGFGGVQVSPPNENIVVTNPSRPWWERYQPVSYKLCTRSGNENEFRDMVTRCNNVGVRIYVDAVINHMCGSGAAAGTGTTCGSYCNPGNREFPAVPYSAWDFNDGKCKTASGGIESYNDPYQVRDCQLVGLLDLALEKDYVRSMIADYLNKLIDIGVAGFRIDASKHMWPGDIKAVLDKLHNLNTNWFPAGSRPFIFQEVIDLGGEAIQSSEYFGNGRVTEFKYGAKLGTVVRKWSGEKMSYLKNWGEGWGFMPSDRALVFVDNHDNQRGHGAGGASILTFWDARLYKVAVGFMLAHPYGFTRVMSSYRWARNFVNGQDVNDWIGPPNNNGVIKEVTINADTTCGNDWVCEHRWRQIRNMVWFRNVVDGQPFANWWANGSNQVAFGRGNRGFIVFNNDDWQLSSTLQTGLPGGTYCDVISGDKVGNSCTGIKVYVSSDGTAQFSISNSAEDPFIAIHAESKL
Description: 20µL of α -amylase solution (0.5 mg/ml) was added to phosphate buffer (pH 6.9, 0.02 M, 200 µL). 250 μL of test samples (10-50 µg/mL) was added, to all the above solutions and kept for incubation for 10 min.1% starch solution (200µL) was further added and again kept for incubation for 10 min at a temperature of 25°C. Termination of the reaction was affected by the addition of 400 μL of 3, 5-dinitrosalicylic acid (DNS) reagent. Lastly, it was incubated in water (at 70°C, 5 min). The absorbance was recorded using an ELISA microplate reader at 540 nm. […] All the reactions were carried out in triplicates. The reaction mixture, devoid of the test sample, served as control. The following formula was employed to calculate percentage inhibition..
% Inhibition = [(Ac – As) /Ac] × 100 Ac-Control absorbance, As-Standard absorbance

Molecule	IC50
(E)-N-(5-(1H-benzo[d]imidazol-4-yl)-1,3,4-thiadiazol-2-yl)-1-(3-fluorophenyl)methanimine [Analog 11]	3.18 ± 0.1 µM
(E)-N-(5-(1H-benzo[d]imidazol-4-yl)-1,3,4-thiadiazol-2-yl)-1-(4-bromophenyl)methanimine [Analog 17]	2.16 ± 0.5 µM

target: α-glucosidase; assay: in vitro α-glucosidase inhibitory assay (p-nitrophenyl-D-glucopyranoside, 405 nm); type: biochemical; details: triplicates; standard acarbose; read-out: α-Glucosidase IC50 (µM ±SEM)
Description: 10 µl of the α-glucosidase enzyme, 20 µl of test samples (10-50 µg/ml) and 50 µl, of 0.1M phosphate buffer (pH=6.8), were incubated at 37°C for 15 min in a 96-well plate. 20 µl of p-nitrophenyl—D-glucopyranoside solution was further added as a substrate and again incubated for 20 min at 37 °C. Sodium carbonate (50 µl of 0.1M) was added to terminate the reaction. P-nitrophenol was liberated, during the reaction which was measured at 405nm using an ELISA microplate reader. […] All the experiments were carried out in triplicates. The percentage inhibition was calculated by the formula.
% Inhibition = [(Ac – As) /Ac] × 100 Ac-absorbance for control, As-absorbance for standard.

Molecule	IC50
FC(F)(F)c1ccc(/C=N/c2nnc(-c3cccc4[nH]cnc34)s2)cc1 [Analog 1, (E)-N-(5-(1H-benzo[d]imidazol-4-yl)-1,3,4-thiadiazol-2-yl)-1-(4-(trifluoromethyl)phenyl)methanimine]	2.8 ± 0.2 µM
O=[N+]([O-])c1cc(Br)ccc1/C=N/c1nnc(-c2cccc3[nH]cnc23)s1 [Analog 3, (E)-N-(5-(1H-benzo[d]imidazol-4-yl)-1,3,4-thiadiazol-2-yl)-1-(4-bromo-2-nitrophenyl)methanimine]	24.6 ± 0.2 µM
O=[N+]([O-])c1ccc(/C=N/c2nnc(-c3cccc4[nH]cnc34)s2)cc1 [Analog 5, (E)-N-(5-(1H-benzo[d]imidazol-4-yl)-1,3,4-thiadiazol-2-yl)-1-(4-nitrophenyl)methanimine]	5.7 ± 0.2 µM
Fc1ccc(/C=N/c2nnc(-c3cccc4[nH]cnc34)s2)cc1 [Analog 9, (E)-N-(5-(1H-benzo[d]imidazol-4-yl)-1,3,4-thiadiazol-2-yl)-1-(4-fluorophenyl)methanimine]	3.9 ± 0.1 µM
COc1ccc(OC)c(/C=N/c2nnc(-c3cccc4[nH]cnc34)s2)c1 [Analog 10, (E)-N-(5-(1H-benzo[d]imidazol-4-yl)-1,3,4-thiadiazol-2-yl)-1-(2,5-dimethoxyphenyl)methanimine]	14.5 ± 0.5 µM
O=[N+]([O-])c1cc(Cl)ccc1/C=N/c1nnc(-c2cccc3[nH]cnc23)s1 [Analog 14, (E)-N-(5-(1H-benzo[d]imidazol-4-yl)-1,3,4-thiadiazol-2-yl)-1-(4-chloro-2-nitrophenyl)methanimine]	9.3 ± 0.4 µM
Brc1ccc(/C=N/c2nnc(-c3cccc4[nH]cnc34)s2)cc1 [Analog 16, (E)-N-(5-(1H-benzo[d]imidazol-4-yl)-1,3,4-thiadiazol-2-yl)-1-(4-bromophenyl)methanimine]	26.1 ± 0.1 µM
(E)-N-(5-(1H-benzo[d]imidazol-4-yl)-1,3,4-thiadiazol-2-yl)-1-(3-fluorophenyl)methanimine [Analog 11]	4.7 ± 0.1 µM
(E)-N-(5-(1H-benzo[d]imidazol-4-yl)-1,3,4-thiadiazol-2-yl)-1-(4-bromophenyl)methanimine [Analog 17]	2.3 ± 0.6 µM

Next, values leading:

IC50	Molecule
2.1 ± 0.1 µM	Oc1cc(F)ccc1/C=N/c1nnc(-c2cccc3[nH]cnc23)s1 [Analog 2, (E)-2-(((5-(1H-benzo[d]imidazol-4-yl)-1,3,4-thiadiazol-2-yl)imino)methyl)-5-fluorophenol]
7.4 ± 0.3 µM	O=[N+]([O-])c1ccccc1/C=N/c1nnc(-c2cccc3[nH]cnc23)s1 [Analog 4, (E)-N-(5-(1H-benzo[d]imidazol-4-yl)-1,3,4-thiadiazol-2-yl)-1-(2 nitrophenyl)methanimine]
15.3 ± 0.1 µM	Cc1ccc(/C=N/c2nnc(-c3cccc4[nH]cnc34)s2)cc1 [Analog 6, (E)-N-(5-(1H-benzo[d]imidazol-4-yl)-1,3,4-thiadiazol-2-yl)-1-(p-tolyl)methanimine]
19.9 ± 0.1 µM	Cc1ccccc1/C=N/c1nnc(-c2cccc3[nH]cnc23)s1 [Analog 7, (E)-N-(5-(1H-benzo[d]imidazol-4-yl)-1,3,4-thiadiazol-2-yl)-1-(o-tolyl)methanimine]
21.6 ± 0.3 µM	Cc1cccc(/C=N/c2nnc(-c3cccc4[nH]cnc34)s2)c1 [Analog 8, (E)-N-(5-(1H-benzo[d]imidazol-4-yl)-1,3,4-thiadiazol-2-yl)-1-(m-tolyl)methanimine]
15.4 ± 0.3 µM	COc1ccccc1/C=N/c1nnc(-c2cccc3[nH]cnc23)s1 [Analog 12, (E)-N-(5-(1H-benzo[d]imidazol-4-yl)-1,3,4-thiadiazol-2-yl)-1-(2-methoxyphenyl)methanimine]
17.2 ± 0.3 µM	COc1cccc(/C=N/c2nnc(-c3cccc4[nH]cnc34)s2)c1 [Analog 13, (E)-N-(5-(1H-benzo[d]imidazol-4-yl)-1,3,4-thiadiazol-2-yl)-1-(3-methoxyphenyl)methanimine]
6.6 ± 0.1 µM	Clc1cccc(/C=N/c2nnc(-c3cccc4[nH]cnc34)s2)c1Cl [Analog 15, (E)-N-(5-(1H-benzo[d]imidazol-4-yl)-1,3,4-thiadiazol-2-yl)-1-(2,3-dichlorophenyl)methanimine]
